Reference: ChEMBL document CHEMBL1201862, “PubChem BioAssay data set” (2004)
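Cells were grown in 96-well plates and exposed to each compound for 48 hours at five concentrations; endpoints were interpolated linearly between bracketing concentrations, or set to the highest concentration if not reached. GI50 marks 50% less growth.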 The source made the active and inactive calls. Rule as the data show it: active = GI50 up to about 1.1 µM and inactive = higher.

Assays:
Test in all cases: growth of human tumour cells (NCI), 48 h
T47D = system: T47D
NCI-H522 = system: NCI-H522
OVCAR-5 = system: OVCAR-5
SK-OV-3 = system: SK-OV-3
OVCAR-8 = system: OVCAR-8
SK-MEL-28 = system: SK-MEL-28
NCI-H23 = system: NCI-H23
BT-549 = system: BT-549
OVCAR-3 = system: OVCAR-3
UACC-62 = system: UACC-62
U-251 = system: U-251
RXF 393 = system: RXF 393
KM12 = system: KM12
MDA-N = system: MDA-N
SN12C = system: SN12C
MDA-MB-231 = system: MDA-MB-231
SF-295 = system: SF-295
HT-29 = system: HT-29
ACHN = system: ACHN
SF-539 = system: SF-539

Measured: GI50

O=C(C[C@H](NC(=O)OCc1ccccc1)C(=O)NC1Cc2ccccc2OC1=O)OCc1ccccc1 (stereo not given in full)
inactive: T47D 94.8 µM | NCI-H522 > 100 µM | OVCAR-5 > 100 µM | SK-OV-3 > 100 µM | OVCAR-8 > 100 µM | SK-MEL-28 > 100 µM | NCI-H23 > 100 µM | BT-549 > 100 µM | OVCAR-3 > 100 µM | UACC-62 > 10 µM | U-251 > 100 µM | RXF 393 > 100 µM | KM12 > 100 µM | MDA-N > 100 µM | SN12C 36.4 µM | MDA-MB-231 26.7 µM

COC(=O)[C@H](Cc1ccccc1)NC(=O)c1ccc(CNC(=O)/C=C/c2cccc(Oc3ccccc3)c2)cc1
inactive: SF-295 44.1 µM | T47D 56 µM | OVCAR-5 > 100 µM | SK-OV-3 53.5 µM | OVCAR-8 36.4 µM | SK-MEL-28 9.33 µM | HT-29 61.8 µM | NCI-H23 36.7 µM | BT-549 > 100 µM | OVCAR-3 11.8 µM | UACC-62 7.91 µM | U-251 18.3 µM | RXF 393 7.31 µM | KM12 40.8 µM | ACHN 16.4 µM | MDA-N 4.16 µM | SN12C 26.1 µM | MDA-MB-231 18.7 µM

CCOC(=O)NC(C(F)(F)F)(C(F)(F)F)P(=O)(OCC(C)C)OCC(C)C
inactive: SF-539 15.7 µM | SF-295 24.8 µM | T47D 23.8 µM | NCI-H522 2.49 µM | OVCAR-5 18.6 µM | SK-OV-3 13.7 µM | OVCAR-8 5.41 µM | SK-MEL-28 18 µM | HT-29 11.5 µM | BT-549 13.2 µM | OVCAR-3 19.1 µM | UACC-62 11.7 µM | U-251 5.98 µM | RXF 393 11.3 µM | KM12 14 µM | ACHN 8.34 µM | MDA-N 6.04 µM | SN12C 16.2 µM | MDA-MB-231 15.1 µM

CCOC(=O)C(Cc1ccc(OC(=O)c2ccc(OC)cc2OC)cc1)NC(=O)C(F)(F)F (stereo not given)
inactive: SF-539 23.2 µM | SF-295 31.7 µM | T47D 23.8 µM | NCI-H522 17.9 µM | OVCAR-5 > 100 µM | SK-OV-3 39 µM | OVCAR-8 22.8 µM | HT-29 20.7 µM | NCI-H23 22.1 µM | BT-549 79.1 µM | OVCAR-3 19.5 µM | UACC-62 16.1 µM | U-251 32.1 µM | RXF 393 19.6 µM | KM12 29.4 µM | ACHN 17.2 µM | MDA-N 20 µM | SN12C 40.1 µM | MDA-MB-231 57.7 µM

COC(=O)NC(Nc1ccccn1)(C(F)(F)F)C(F)(F)F
inactive: SF-539 > 100 µM | T47D > 100 µM | NCI-H522 > 100 µM | OVCAR-5 > 100 µM | SK-OV-3 > 100 µM | OVCAR-8 > 100 µM | SK-MEL-28 > 100 µM | HT-29 > 100 µM | NCI-H23 > 100 µM | BT-549 > 100 µM | OVCAR-3 > 100 µM | UACC-62 > 100 µM | U-251 > 100 µM | RXF 393 29.9 µM | KM12 > 100 µM | ACHN > 100 µM | MDA-N > 100 µM | MDA-MB-231 > 100 µM

CC(=O)/C(=C/NC(=S)N/N=C1\C(=O)Nc2ccccc21)C(=O)Nc1ccccc1C
inactive: SF-539 > 100 µM | SF-295 > 100 µM | T47D 27.5 µM | OVCAR-5 > 100 µM | SK-OV-3 > 100 µM | OVCAR-8 > 100 µM | SK-MEL-28 > 100 µM | HT-29 > 100 µM | NCI-H23 > 100 µM | BT-549 > 100 µM | OVCAR-3 75.2 µM | UACC-62 > 100 µM | U-251 > 100 µM | RXF 393 83.8 µM | KM12 98.9 µM | ACHN 96.2 µM | MDA-N > 100 µM | SN12C > 100 µM | MDA-MB-231 91.6 µM

Cn1c(=O)cc(/N=N\c2ccc(Cl)c(Cl)c2)[nH]c1=O
inactive: SF-539 > 100 µM | SF-295 > 100 µM | T47D 29.7 µM | NCI-H522 25.6 µM | OVCAR-5 24.8 µM | SK-OV-3 > 100 µM | OVCAR-8 23.4 µM | SK-MEL-28 23.6 µM | HT-29 19.9 µM | NCI-H23 37.3 µM | BT-549 29 µM | OVCAR-3 18.7 µM | UACC-62 62.2 µM | U-251 23.3 µM | RXF 393 23.3 µM | KM12 > 100 µM | ACHN 21.2 µM | MDA-N 18.7 µM | SN12C 41.1 µM | MDA-MB-231 24.8 µM

O=C(Cn1c(C(=O)/C=C/c2ccc(Cl)cc2)nc2ccccc21)c1ccc(Cl)cc1
inactive: SF-539 18.3 µM | T47D 28.6 µM | OVCAR-5 26.8 µM | SK-OV-3 26.9 µM | SK-MEL-28 21.7 µM | HT-29 15 µM | NCI-H23 19.5 µM | BT-549 24.5 µM | OVCAR-3 8.87 µM | UACC-62 15.8 µM | U-251 11.5 µM | RXF 393 15.5 µM | KM12 7.26 µM | ACHN 20.7 µM | MDA-N 20.7 µM | SN12C 14.1 µM | MDA-MB-231 19.9 µM

CCOc1ncn(-c2ccc(NC(=S)Nc3cnccn3)cc2)n1
inactive: SF-539 > 10 µM | SF-295 > 10 µM | T47D > 10 µM | NCI-H522 > 10 µM | OVCAR-5 > 10 µM | SK-OV-3 > 10 µM | OVCAR-8 > 10 µM | HT-29 > 10 µM | NCI-H23 > 10 µM | BT-549 > 10 µM | OVCAR-3 > 10 µM | UACC-62 > 10 µM | U-251 > 10 µM | RXF 393 > 10 µM | KM12 > 10 µM | ACHN > 10 µM | MDA-N > 10 µM | SN12C > 10 µM | MDA-MB-231 > 10 µM

Cc1ccc([N+](=O)[O-])cc1S(=O)(=O)Nc1ccc(C2=NOC(c3cccs3)C2)cc1 (stereo not given)
inactive: SF-539 13.5 µM | SF-295 3.9 µM | T47D 12.8 µM | NCI-H522 3.2 µM | OVCAR-5 32.3 µM | SK-OV-3 14.2 µM | OVCAR-8 22.9 µM | SK-MEL-28 20.1 µM | HT-29 12.5 µM | NCI-H23 17.6 µM | BT-549 13.2 µM | OVCAR-3 5.19 µM | UACC-62 3.78 µM | RXF 393 5.02 µM | KM12 7.18 µM | ACHN 14.8 µM | MDA-N 2.74 µM | SN12C 17.9 µM | MDA-MB-231 18.7 µM

COC(=O)CC[N+]1=CCC(c2ccccc2)(c2ccccc2)O1
inactive: SF-539 > 100 µM | SF-295 > 100 µM | T47D > 100 µM | NCI-H522 > 100 µM | OVCAR-5 > 100 µM | SK-OV-3 > 100 µM | OVCAR-8 > 100 µM | SK-MEL-28 > 100 µM | HT-29 > 100 µM | NCI-H23 > 100 µM | BT-549 > 100 µM | OVCAR-3 > 100 µM | UACC-62 > 100 µM | U-251 > 100 µM | RXF 393 > 100 µM | KM12 > 100 µM | ACHN > 100 µM | MDA-N 18.5 µM | SN12C > 100 µM | MDA-MB-231 > 100 µM

Cc1ccc(OCC2OC(n3cnc4nc(Nc5ccc(Cl)c(Cl)c5)nc(Cl)c43)CC2Oc2ccc(C)cc2)cc1 (stereo not given)
inactive: SF-295 > 100 µM | T47D > 100 µM | OVCAR-5 > 100 µM | SK-OV-3 > 100 µM | OVCAR-8 > 100 µM | SK-MEL-28 > 100 µM | HT-29 > 100 µM | NCI-H23 > 100 µM | BT-549 > 100 µM | OVCAR-3 > 100 µM | UACC-62 > 100 µM | U-251 > 100 µM | RXF 393 > 100 µM | KM12 > 100 µM | ACHN > 100 µM | MDA-N > 100 µM | SN12C > 100 µM | MDA-MB-231 > 100 µM

COc1ccc(N2C(=O)C3c4[nH]c5ccc(OC)cc5c4C4CCC(C(C)C)CC4C3C2=O)cc1 (stereo not given)
inactive: SF-295 31.2 µM | T47D > 100 µM | NCI-H522 18.1 µM | OVCAR-5 > 100 µM | SK-OV-3 36.9 µM | OVCAR-8 > 29.4 µM | SK-MEL-28 > 73.6 µM | HT-29 > 100 µM | NCI-H23 > 100 µM | BT-549 > 100 µM | OVCAR-3 > 100 µM | UACC-62 > 31.6 µM | U-251 26.4 µM | RXF 393 31 µM | KM12 > 100 µM | ACHN > 100 µM | MDA-N > 100 µM | SN12C > 100 µM | MDA-MB-231 30.4 µM

Cc1ccc(O)c(-c2cc(-c3cccc(Br)c3)c(C#N)c(N)n2)c1
inactive: SF-539 29.1 µM | SF-295 22.9 µM | T47D 17.7 µM | NCI-H522 18.9 µM | OVCAR-5 41.5 µM | SK-OV-3 31.9 µM | OVCAR-8 32.3 µM | HT-29 23.9 µM | NCI-H23 33.7 µM | BT-549 37.2 µM | OVCAR-3 27.6 µM | UACC-62 16.4 µM | U-251 17.3 µM | RXF 393 20.8 µM | KM12 19.2 µM | ACHN 18.2 µM | MDA-N 24.1 µM | SN12C 21.5 µM | MDA-MB-231 20.4 µM
